Experiment: Acid dissociation constant (pKa) of the acid
Source text: In this specification, the acid dissociation constant (pKa) of the acid is an index of acidity, and a common logarithm is employed as a reciprocal of the dissociation constant (Ka) of acid. That is, the acid dissociation constant (pKa) of the acid is obtained by measuring the dissociation constant Ka=[H3O^+] [B^−]/[BH] under a dilute aqueous solution condition and using a formula: pKa=−log Ka Incidentally, in the above formula, BH represents an organic acid and B^− represents a conjugate base of an organic acid. The measurement method of pKa is as follows: a hydrogen ion concentration is measured using a pH meter and pKa can be calculated from the concentration of the substance and the hydrogen ion concentration. Incidentally, in the case of polybasic acid, the pKa is a value calculated for the first Ka (pKa1).

pKa (dilute aqueous solution)	SMILES	pKa
3.4	O=C(O)C(O)CO (centres unmarked) [Glyceric acid]	–
4.6	CCCCC(=O)O [Valeric acid]	–
–	O=C(O)CC(O)C(=O)O (centres unmarked) [Malic acid]	3.4
4.37	CC(C)(O)C(=O)O [2-Hydroxyisobutyric acid]	–
–	CC(C)CC(O)C(=O)O (centres unmarked) [Leucine acid]	3.9

— patent publication US20190085207A1, “POLISHING COMPOSITION FOR OBJECT TO BE POLISHED HAVING METAL-CONTAINING LAYER” (FUJIMI INCORPORATED, priority 2016, published 2019)
